From US12077503B2, “Substituted cyclic amides and their use as herbicides” (FMC CORPORATION, priority 2015, dated 2024)

How the values were obtained:
Type in all cases: in vivo
Kochia (Kochia scoparia) [1] = test: Test A preemergence; settings: for Kochia plant response rating (0 to 100 scale, 0 is no effect, 100 is complete control): visual injury approx. 10 d
Procedure, shortened: (§1)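 Greenhouse, ~10 d after spray; visual injury vs untreated controls, 0 = no effect, 100 = complete control. Preemergence: directed soil spray over planted seeds. Postemergence: plants 2–10 cm, 1–2 leaf stage. Loam/sand blend. Compound in non-phytotoxic solvent with surfactant.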

[2] = test system: barnyardgrass (Echinochloa crus-galli); test: Test A preemergence; settings: for Barnyardgrass plant response rating (0 to 100 scale, 0 is no effect, 100 is complete control): visual injury approx. 10 d
Procedure, shortened: as §1

[3] = test system: giant foxtail (Setaria faberii); test: Test A preemergence; settings: for Foxtail, Giant plant response rating (0 to 100 scale, 0 is no effect, 100 is complete control): visual injury approx. 10 d
Procedure, shortened: as §1

[4] = test system: pigweed (Amaranthus retroflexus); test: Test A preemergence; settings: for Pigweed plant response rating (0 to 100 scale, 0 is no effect, 100 is complete control): visual injury approx. 10 d
[5] = test system: ragweed (common ragweed, Ambrosia elatior); test: Test A preemergence; settings: for Ragweed plant response rating (0 to 100 scale, 0 is no effect, 100 is complete control): visual injury approx. 10 d
Procedure, shortened: as §1

[6] = test system: ryegrass, Italian (Italian ryegrass, Lolium multiflorum); test: Test A preemergence; settings: for Ryegrass, Italian plant response rating (0 to 100 scale, 0 is no effect, 100 is complete control): visual injury approx. 10 d
Procedure, shortened: as §1

[7] = test system: Galium (catchweed bedstraw, Galium aparine); test: Test A postemergence
Procedure, shortened: as §1

Kochia (Kochia scoparia) [8] = test: Test A postemergence
Procedure, shortened: as §1

[9] = test system: barnyardgrass (Echinochloa crus-galli); test: Test A postemergence
Procedure, shortened: as §1

[10] = test system: blackgrass (Alopecurus myosuroides); test: Test A postemergence
Procedure, shortened: as §1

corn (Zea mays) = test: Test A postemergence
Procedure, shortened: as §1

[11] = test system: giant foxtail (Setaria faberii); test: Test A postemergence
Procedure, shortened: as §1

[12] = test system: pigweed (Amaranthus retroflexus); test: Test A postemergence
Procedure, shortened: as §1

[13] = test system: ragweed (common ragweed, Ambrosia elatior); test: Test A postemergence
Procedure, shortened: as §1

[14] = test system: ryegrass, Italian (Italian ryegrass, Lolium multiflorum); test: Test A postemergence
Procedure, shortened: as §1

[15] = test system: wheat (Triticum aestivum); test: Test A postemergence
Procedure, shortened: as §1

[16] = test system: barnyardgrass (Echinochloa crus-galli); test: Test B flooded paddy test; settings: Flood, 250 g ai/ha; 0 to 100 scale where 0 is no effect and 100 is complete control; 13 to 15 d
Procedure, shortened: (§2)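 Plants at 2-leaf stage flooded to 3 cm above soil, with compounds applied directly to paddy water and that depth maintained. Plants kept in greenhouse 13–15 d. Visual rating versus controls on a 0 (no effect) to 100 (complete control) scale.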

[17] = test system: ducksalad (Heteranthera limosa); test: Test B flooded paddy test; settings: Flood, 250 g ai/ha; 0 to 100 scale where 0 is no effect and 100 is complete control; 13 to 15 d
Procedure, shortened: as §2

rice (Oryra sativa) = test: Test B flooded paddy test; settings: Flood, 250 g ai/ha; 0 to 100 scale where 0 is no effect and 100 is complete control; 13 to 15 d
Procedure, shortened: as §2

[18] = test system: sedge, umbrella (small-flower umbrella sedge, Cyperus difformis); test: Test B flooded paddy test; settings: Flood, 250 g ai/ha; 0 to 100 scale where 0 is no effect and 100 is complete control; 13 to 15 d
Procedure, shortened: as §2

[19] = 125 g ai/ha, Preemergence, visual injury after approximately 10 d, 0 to 100 scale where 0 is no effect and 100 is complete control
[20] = 125 g ai/ha, postemergence, visual rating after approx. 10 d, 0 to 100 scale (0 no effect, 100 complete control)
[21] = Postemergence, 500 g ai/ha, 0 to 100 scale where 0 is no effect and 100 is complete control
[22] = 500 g ai/ha, preemergence, 0 to 100 scale, 0 = no effect, 100 = complete control

| Compound | Plant response rating, Kochia (Kochia (Kochia scoparia) [1]; [19]) | Plant response rating, Barnyardgrass [2, 19] | Plant response rating, Foxtail, Giant [3, 19] | Plant response rating, Pigweed [4, 19] | Plant response rating, Ragweed [5, 19] | Plant response rating, Ryegrass, Italian [6, 19] | Plant response rating, Galium [7, 20] | Plant response rating, Galium [7, 21] | Plant response rating, Kochia (Kochia (Kochia scoparia) [8]; [20]) | Plant response rating, Kochia (Kochia (Kochia scoparia) [8]; [21]) | Plant response rating, Barnyardgrass [9, 20] | Plant response rating, Barnyardgrass [9, 21] | Plant response rating, Blackgrass [10, 20] | Plant response rating, Blackgrass [10, 21] | Plant response rating, Corn (corn (Zea mays); [20]) | Plant response rating, Corn (corn (Zea mays); [21]) | Plant response rating, Foxtail, Giant [11, 20] | Plant response rating, Foxtail, Giant [11, 21] | Plant response rating, Pigweed [12, 20] | Plant response rating, Pigweed [12, 21] | further results |
| --- | --- | --- | --- | --- | --- | --- | --- | --- | --- | --- | --- | --- | --- | --- | --- | --- | --- | --- | --- | --- | --- |
| O=C1NCC(c2cc(C(F)(F)F)ccc2F)C1C(=O)Nc1cccc(F)c1F (stereo not drawn) [Compound 594] | 0 | 90 | 90 | 0 | 0 | 30 | 0 | 20 | 0 | 40 | 90 | 90 | 50 | 60 | 60 | 70 | 90 | 90 | 0 | 40 | Kochia plant response rating (0 to 100 scale, 0 is no effect, 100 is complete control) (Kochia (Kochia scoparia) [1]; Preemergence, 500 g ai/ha): 50; Barnyardgrass plant response rating (0 to 100 scale, 0 is no effect, 100 is complete control) ([2]; Preemergence, 500 g ai/ha): 90; Foxtail, Giant plant response rating (0 to 100 scale, 0 is no effect, 100 is complete control) ([3]; Preemergence, 500 g ai/ha): 90; Pigweed plant response rating (0 to 100 scale, 0 is no effect, 100 is complete control) ([4]; Preemergence, 500 g ai/ha): 20; Ragweed plant response rating (0 to 100 scale, 0 is no effect, 100 is complete control) ([5]; Preemergence, 500 g ai/ha): 20; Ryegrass, Italian plant response rating (0 to 100 scale, 0 is no effect, 100 is complete control) ([6]; Preemergence, 500 g ai/ha): 90; Plant response rating, Ragweed [13, 20]: 0; Plant response rating, Ragweed [13, 21]: 50; Plant response rating, Ryegrass, Italian [14, 20]: 20; Plant response rating, Ryegrass, Italian [14, 21]: 30; Plant response rating, Wheat [15, 20]: 30; Plant response rating, Wheat [15, 21]: 70; Plant response rating, Barnyardgrass [16]: 70; Plant response rating, Ducksalad [17]: 90; Plant response rating, Rice (rice (Oryra sativa)): 35; Plant response rating, Sedge, Umbrella [18]: 0 |
| O=C1NCC(c2cc(C(F)(F)F)ccc2F)C1C(=O)Nc1ccc(F)cc1F (stereo not drawn) [Compound 595] | 40 | 90 | 90 | 30 | 0 | 20 | 0 | 20 | 0 | 30 | 90 | 90 | 20 | 40 | 30 | 60 | 90 | 90 | 20 | 30 | Kochia plant response rating (0 to 100 scale, 0 is no effect, 100 is complete control) (Kochia (Kochia scoparia) [1]; Preemergence, 500 g ai/ha): 50; Barnyardgrass plant response rating (0 to 100 scale, 0 is no effect, 100 is complete control) ([2]; Preemergence, 500 g ai/ha): 90; Foxtail, Giant plant response rating (0 to 100 scale, 0 is no effect, 100 is complete control) ([3]; Preemergence, 500 g ai/ha): 90; Pigweed plant response rating (0 to 100 scale, 0 is no effect, 100 is complete control) ([4]; Preemergence, 500 g ai/ha): 30; Ragweed plant response rating (0 to 100 scale, 0 is no effect, 100 is complete control) ([5]; Preemergence, 500 g ai/ha): 30; Ryegrass, Italian plant response rating (0 to 100 scale, 0 is no effect, 100 is complete control) ([6]; Preemergence, 500 g ai/ha): 40; Plant response rating, Ragweed [13, 20]: 0; Plant response rating, Ragweed [13, 21]: 0; Plant response rating, Ryegrass, Italian [14, 20]: 20; Plant response rating, Ryegrass, Italian [14, 21]: 40; Plant response rating, Wheat [15, 20]: 30; Plant response rating, Wheat [15, 21]: 50; Plant response rating, Barnyardgrass [16]: 50; Plant response rating, Ducksalad [17]: 80; Plant response rating, Rice (rice (Oryra sativa)): 20; Plant response rating, Sedge, Umbrella [18]: 70 |
| O=C1NCC(c2ccsc2Br)C1C(=O)Nc1ccccc1F (stereo not drawn) [Compound 597] | 0 | 20 | 20 | 0 | 0 | 0 | 0 | 20 | 0 | 0 | 0 | 30 | 0 | 20 | 0 | 20 | 0 | 30 | 0 | 0 | Kochia plant response rating (0 to 100 scale, 0 is no effect, 100 is complete control) (Kochia (Kochia scoparia) [1]; Preemergence, 500 g ai/ha): 20; Barnyardgrass plant response rating (0 to 100 scale, 0 is no effect, 100 is complete control) ([2]; Preemergence, 500 g ai/ha): 70; Foxtail, Giant plant response rating (0 to 100 scale, 0 is no effect, 100 is complete control) ([3]; Preemergence, 500 g ai/ha): 80; Pigweed plant response rating (0 to 100 scale, 0 is no effect, 100 is complete control) ([4]; Preemergence, 500 g ai/ha): 0; Ragweed plant response rating (0 to 100 scale, 0 is no effect, 100 is complete control) ([5]; Preemergence, 500 g ai/ha): 0; Ryegrass, Italian plant response rating (0 to 100 scale, 0 is no effect, 100 is complete control) ([6]; Preemergence, 500 g ai/ha): 0; Plant response rating, Ragweed [13, 20]: 0; Plant response rating, Ragweed [13, 21]: 0; Plant response rating, Ryegrass, Italian [14, 20]: 0; Plant response rating, Ryegrass, Italian [14, 21]: 0; Plant response rating, Wheat [15, 20]: 0; Plant response rating, Wheat [15, 21]: 20; Plant response rating, Barnyardgrass [16]: 0; Plant response rating, Ducksalad [17]: 50; Plant response rating, Rice (rice (Oryra sativa)): 0; Plant response rating, Sedge, Umbrella [18]: 0 |
| O=C1NCC(c2cc(F)c(F)cc2F)C1C(=O)Nc1ccc(F)c(F)c1F (stereo not drawn) [Compound 614] | 0 | 50 | 90 | 0 | 0 | 0 | 30 | 40 | 0 | 50 | 80 | 90 | 30 | 70 | 0 | 20 | 80 | 90 | 0 | 30 | Plant response rating, Kochia (Kochia (Kochia scoparia) [1]; [22]): 20; Plant response rating, Barnyardgrass [2, 22]: 90; Plant response rating, Foxtail, Giant [3, 22]: 90; Plant response rating, Pigweed [4, 22]: 0; Plant response rating, Ragweed [5, 22]: 0; Plant response rating, Ryegrass, Italian [6, 22]: 20; Plant response rating, Ragweed [13, 20]: 0; Plant response rating, Ragweed [13, 21]: 0; Plant response rating, Ryegrass, Italian [14, 20]: 0; Plant response rating, Ryegrass, Italian [14, 21]: 20; Plant response rating, Wheat [15, 20]: 0; Plant response rating, Wheat [15, 21]: 40; Plant response rating, Barnyardgrass [16]: 65; Plant response rating, Ducksalad [17]: 100; Plant response rating, Rice (rice (Oryra sativa)): 10; Plant response rating, Sedge, Umbrella [18]: 0 |
